Reference: patent publication US10980238B2, “Alkali metal salt for use in treatment of varroa destructor mite infestation of honey bees” (Universität Hohenheim, priority 2015, dated 2021)
“And” between values parts separate entries of the source, which are not always exact repeats. Equal entries are not always repeated. Where two headings read alike, the source gives them in different places.

Assays:
bees [1] = conditions: for impact on bee viability: 4 mM, 7-day treatment period, data not shown; for Number of dead bees, Day 1 / Number of dead bees, Day 2 / Number of dead bees, Day 3 / Number of dead bees, Day 4 / Number of dead bees, Day 5 / Number of dead bees, Day 6 / Number of dead bees, Day 7: Li-salt 25 mM in sucrose syrup for 7 days; for Number of dead bees, Day 1 / Number of dead bees, Day 2 / Number of dead bees, Day 3 / Number of dead bees, Day 4 / Number of dead bees, Day 5 / Number of dead bees, Day 6 / Number of dead bees, Day 7 / Number of dead bees, Sum: 50 bees per cage, mean of three replicates; for Number of dead bees, Sum: Li-salt 25 mM in sucrose syrup, days 1-7
Description: (§1) The bees were fed with Li-salt/sucrose solutions for 7 days. Survival rate of bees and mites were monitored daily and dead bees or mites were removed.

Varroa destructor = conditions: for effect on mites during the 7-day treatment period: 4 mM, data not shown; for Number of dead mites, Day 1 / Number of dead mites, Day 2 / Number of dead mites, Day 3 / Number of dead mites, Day 4 / Number of dead mites, Day 5 / Number of dead mites, Day 6 / Number of dead mites, Day 7: Li-salt 25 mM in sucrose syrup for 7 days; for Number of dead mites, Day 1 / Number of dead mites, Day 2 / Number of dead mites, Day 3 / Number of dead mites, Day 4 / Number of dead mites, Day 5 / Number of dead mites, Day 6 / Number of dead mites, Day 7 / Number of dead mites, Sum: 25 mites per cage, mean of three replicates; for Number of dead mites, Sum: Li-salt 25 mM in sucrose syrup, days 1-7
Description: as §1

bees [2] = experiment: Experiment 4 cage test of MgCl2 (50 bees, 20 mites): bee health; type: in vivo, Apis mellifera; conditions: 100 mM in sucrose syrup
Protocol: To test the activity of bivalent ions we dissolved MgCl2 in sucrose syrup at a final concentration of 100 mM. 2 cages of 50 bees to which 20 mites were added were fed with sucrose syrup only and syrup containing 100 mM MgCl2.

Varroa mites = experiment: Experiment 5 cage comparison of LiCl, NaCl and MgCl2: dead mites; type: in vivo, Varroa destructor; conditions: for Number of dead mites, Day 1 / Number of dead mites, Day 2 / Number of dead mites, Day 3 / Number of dead mites, Day 4 / Number of dead mites, Day 5 / Number of dead mites, Day 6 / Number of dead mites, Day 7 / Number of dead mites, Sum: 25 mites per cage, mean of 6 cages (LiCl) or 3 cages; for Number of dead mites, Sum: 25 mM in 70% sucrose, days 1-7
Protocol: (§2) In a further experiment LiCl, NaCl and MgCl2 were selected and their acaricidal activity compared. The experiment was performed in cages of 50 bees, to each of which 25 mites were added. Bees in control cages received sucrose only. LiCl, NaCl or MgCl2 were added to 70% sucrose solutions at a final concentration of 25 mM each and fed to the bees for seven days. Survival rate of bees and mites were monitored daily. Dead bees and mites were removed from the cages.
(§3) The numbers represent mean values derived from 6 cages. […] Numbers for NaCl, MgCl2 and control represent mean values derived from 3 separate cages.

bees [3] = conditions: 50 bees per cage; for Number of dead bees, Day 1 / Number of dead bees, Day 2 / Number of dead bees, Day 3 / Number of dead bees, Day 4 / Number of dead bees, Day 5 / Number of dead bees, Day 6 / Number of dead bees, Day 7: 25 mM in 70% sucrose for seven days; for Number of dead bees, Day 1 / Number of dead bees, Day 2 / Number of dead bees, Day 3 / Number of dead bees, Day 4 / Number of dead bees, Day 5 / Number of dead bees, Day 6 / Number of dead bees, Day 7 / Number of dead bees, Sum: mean of 6 cages (LiCl) or 3 cages; for Number of dead bees, Sum: days 1-7
Protocol: as §2, §3

[4] = 25 mM in 70% sucrose for seven days

| SMILES | impact on bee viability (bees [1]) | Number of dead bees, Day 1 (bees [1]) | Number of dead bees, Day 2 (bees [1]) | Number of dead bees, Day 3 (bees [1]) | Number of dead bees, Day 4 (bees [1]) | Number of dead bees, Day 5 (bees [1]) | Number of dead bees, Day 6 (bees [1]) | Number of dead bees, Day 7 (bees [1]) | Number of dead bees, Sum (bees [1]) | effect on mites during the 7-day treatment period (Varroa destructor) | Number of dead mites, Day 1 (Varroa destructor) | Number of dead mites, Day 2 (Varroa destructor) | Number of dead mites, Day 3 (Varroa destructor) | Number of dead mites, Day 4 (Varroa destructor) | Number of dead mites, Day 5 (Varroa destructor) | Number of dead mites, Day 6 (Varroa destructor) | Number of dead mites, Day 7 (Varroa destructor) | Number of dead mites, Sum (Varroa destructor) | Number of dead mites, Day 1 (Varroa mites; [4]) | Number of dead mites, Day 2 (Varroa mites; [4]) | also measured |
| --- | --- | --- | --- | --- | --- | --- | --- | --- | --- | --- | --- | --- | --- | --- | --- | --- | --- | --- | --- | --- | --- |
| CC(O)C(=O)[O-].[Li+] (centres unmarked) [Li-lactate, lithium lactate] | without a significant negative impact on bee viability | 0.3 | 0.0 | 0.0 | 0.7 | 2.0 | 0.3 | 1.7 | 5.0 | killed all mites | 0.7 | 14.0 | 6.3 | 4.0 | 0.0 | 0.0 | 0.0 | 25.0 |  |  |  |
| O=C([O-])CC(O)(CC(=O)[O-])C(=O)[O-].[Li+].[Li+].[Li+] [Li-citrate, lithium citrate] | without a significant negative impact on bee viability | 0.0 | 0.0 | 0.3 | 0.0 | 0.7 | 1.7 | 0.3 | 3.0 | killed all mites | 0.3 | 10.0 | 14.7 | 0.0 | 0.0 | 0.0 | 0.0 | 25.0 |  |  |  |
| [Cl-].[Cl-].[Mg+2] [MgCl2] |  |  |  |  |  |  |  |  |  |  |  |  |  |  |  |  |  |  | 0.3 | 1.0 | effect on bee health (bees [2]): impair bee health substantially; Number of dead mites, Day 3 (Varroa mites; [4]): 1.0; Number of dead mites, Day 4 (Varroa mites; [4]): 3.7; Number of dead mites, Day 5 (Varroa mites; [4]): 0.7; Number of dead mites, Day 6 (Varroa mites; [4]): 0.0; Number of dead mites, Day 7 (Varroa mites; [4]): 0.0; Number of dead mites, Sum (Varroa mites): 6.7; Number of dead bees, Day 1 (bees [3]): 0.0; Number of dead bees, Day 2 (bees [3]): 18.0; Number of dead bees, Day 3 (bees [3]): 18.3; Number of dead bees, Day 4 (bees [3]): 9.3; Number of dead bees, Day 5 (bees [3]): 4.3; Number of dead bees, Day 6 (bees [3]): 0.0; Number of dead bees, Day 7 (bees [3]): 0.0; Number of dead bees, Sum (bees [3]; 25 mM in 70% sucrose): 50.0; time after which all bees were dead (bees [3]; 25 mM in 70% sucrose): 5 days |
| [Cl-].[Na+] [NaCl] |  |  |  |  |  |  |  |  |  |  |  |  |  |  |  |  |  |  | 0.0 | 0.3 | acaricidal effect (Varroa mites; [4]): fails to exhibit an acaricidal effect; Number of dead mites, Day 3 (Varroa mites; [4]): 0.0; Number of dead mites, Day 4 (Varroa mites; [4]): 0.0; Number of dead mites, Day 5 (Varroa mites; [4]): 0.3; Number of dead mites, Day 6 (Varroa mites; [4]): 0.7; Number of dead mites, Day 7 (Varroa mites; [4]): 1.0; Number of dead mites, Sum (Varroa mites): 2 and 2.3; Number of dead bees, Day 1 (bees [3]): 0.0; Number of dead bees, Day 2 (bees [3]): 0.0; Number of dead bees, Day 3 (bees [3]): 0.0; Number of dead bees, Day 4 (bees [3]): 0.3; Number of dead bees, Day 5 (bees [3]): 0.0; Number of dead bees, Day 6 (bees [3]): 0.0; Number of dead bees, Day 7 (bees [3]): 1.3; Number of dead bees, Sum (bees [3]; 25 mM in 70% sucrose): 2 and 1.7 |
| O=S(=O)([O-])[O-].[Li+].[Li+] [Li-sulfate, lithium sulfate] | without a significant negative impact on bee viability | 0.0 | 0.0 | 0.0 | 1.0 | 3.7 | 1.7 | 0.0 | 6.3 | killed all mites | 0.7 | 18.0 | 5.7 | 0.7 | 0.0 | 0.0 | 0.0 | 25.0 |  |  |  |
| O=C([O-])[O-].[Li+].[Li+] [Li-carbonate, lithium carbonate] | without a significant negative impact on bee viability | 0.7 | 0.0 | 0.0 | 0.0 | 0.0 | 0.3 | 0.7 | 1.7 | killed all mites | 0.3 | 3.0 | 20.0 | 1.7 | 0.0 | 0.0 | 0.0 | 25.0 |  |  |  |
